{"source": "patent US20100081699A1", "about": "“YEAST PLATFORM CONSTRUCTION AND SCREENING METHODS” (Bioalvo-Servicos ,Investigacao e Desenvolvimento em …, priority 2006, published 2010)", "molecular_target": "T1, human IDO (Homo sapiens, UniProt P14902)", "T1 construct": "The IDO gene was obtained from the IMAGE consortium as a 1586 bps fragment cloned in the vector pCMV-SPORT6; expressed in transfected cells", "T1 sequence (P14902 whole entry, the tested form may be a part)": "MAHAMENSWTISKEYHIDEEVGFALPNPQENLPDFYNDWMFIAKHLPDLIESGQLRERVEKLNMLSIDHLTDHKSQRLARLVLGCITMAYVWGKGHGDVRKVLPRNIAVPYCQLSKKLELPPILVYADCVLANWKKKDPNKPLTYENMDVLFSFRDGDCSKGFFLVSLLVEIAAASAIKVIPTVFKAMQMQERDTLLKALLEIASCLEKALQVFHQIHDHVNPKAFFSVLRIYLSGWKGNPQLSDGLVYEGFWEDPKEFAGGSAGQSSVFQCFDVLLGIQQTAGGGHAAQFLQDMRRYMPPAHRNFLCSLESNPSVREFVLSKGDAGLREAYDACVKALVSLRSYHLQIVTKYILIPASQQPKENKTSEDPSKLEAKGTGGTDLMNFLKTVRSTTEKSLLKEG", "experiment": "Growth inhibition of BLOCKADE cells with small molecule compounds (life/death screen)", "type": "cell-based", "details": "S. cerevisiae BLOCKADE cells, minimum medium with 2% galactose, 10, 5, 2.5 and 1 μM compound, 3 days at 30° C.; WT cells at 10 μM as cytotoxicity control", "experimental": "Cells were pre-grown on a mixture of 1.2% glucose and 0.8% galactose until reaching early exponential phase (OD=1-2). The cells were washed three times with water and then resuspended in fresh selective medium containing 2% galactose, in order to fully activate IDO expression. Cells were dispensed into 96-well plates and inhibitor compounds were added to the cell culture at concentrations of 10, 5, 2.5 and 1 μM. Growth was monitored during 3 days at 30° C. under agitation. Compounds were selected from diverse libraries.\nIDO inhibitory compounds were identified as those that repressed the growth of the cells. Possible cytotoxic effects of the compounds were identified by growing the wild type strain in the same condition at a concentration of 10 μM. Compounds inhibiting both BLOCKADE cells and wild type strains were considered as cytotoxic and therefore not selected for further development. Compounds inhibiting only BLOCKADE cells, but not the wild type strains were considered as hits, potential IDO inhibitory compounds.", "data": [{"smiles": "O=C(O)CCn1c2ccc(Br)cc2c2cc(Br)ccc21", "note": "[BLK200769]", "values": [{"measurement": "Inhibition of growth of BLOCKADE cells", "value": "inhibition"}]}]}
